Assay results from the NIST ThermoML archive (doi:10.1016/j.fluid.2013.05.001).
Several values for one entry are separate records, joined by “and”; a condition that tells them apart may be missing. Equal entries are not always repeated.

Legend:
[1] = mn = molality of the nth substance listed, in mol/kg; conditions: 85.9 kPa, Liquid, Vibrating tube method
[2] = 298.15 K, 85.9 kPa, Liquid; for viscosity: Capillary tube (Ostwald / Ubbelohde) method; for mass density: Vibrating tube method
[3] = refractive index (Na D-line) (dimensionless); conditions: 298.15 K; 85.9 kPa; Liquid; Standard Abbe refractometry

CC(=O)Nc1ccc(OC(=O)c2ccccc2O)cc1 [salophen] + C1CCOC1
mass density, [1]
Conditions	m1 = 0.0103	m1 = 0.0316	m1 = 0.0496	m1 = 0.0699	m1 = 0.0908	m1 = 0.1099	m1 = 0.1293	m1 = 0.1498	m1 = 0.1704
288.15 K	893.79 kg/m3 and 882.94 kg/m3	884.82 kg/m3 and 895.65 kg/m3	886.39 kg/m3 and 897.21 kg/m3	888.13 kg/m3 and 898.95 kg/m3	889.9 kg/m3 and 900.71 kg/m3	891.51 kg/m3 and 902.31 kg/m3	893.11 kg/m3 and 903.88 kg/m3	894.79 kg/m3 and 905.55 kg/m3	896.46 kg/m3 and 907.21 kg/m3
308.15 K	871.92 kg/m3	873.82 kg/m3	875.41 kg/m3	877.17 kg/m3	878.97 kg/m3	880.59 kg/m3	882.21 kg/m3	883.9 kg/m3	885.6 kg/m3
318.15 K	860.78 kg/m3	862.7 kg/m3	864.3 kg/m3	866.08 kg/m3	867.89 kg/m3	869.54 kg/m3	871.17 kg/m3	872.89 kg/m3	874.58 kg/m3

CC(=O)Nc1ccc(OC(=O)c2ccccc2O)cc1 [salophen] + C1COCCO1
mass density, [1]
Conditions	m1 = 0.0106	m1 = 0.0284	m1 = 0.0495	m1 = 0.0693	m1 = 0.0855	m1 = 0.1104	m1 = 0.1313	m1 = 0.1482	m1 = 0.1707
288.15 K	1039.84 kg/m3 and 1028.52 kg/m3	1029.51 kg/m3 and 1040.81 kg/m3	1030.66 kg/m3 and 1041.93 kg/m3	1031.72 kg/m3 and 1042.96 kg/m3	1032.57 kg/m3 and 1043.79 kg/m3	1033.86 kg/m3 and 1045.04 kg/m3	1034.92 kg/m3 and 1046.05 kg/m3	1035.78 kg/m3 and 1046.86 kg/m3	1036.89 kg/m3 and 1047.91 kg/m3
308.15 K	1017.22 kg/m3	1018.23 kg/m3	1019.39 kg/m3	1020.48 kg/m3	1021.35 kg/m3	1022.68 kg/m3	1023.75 kg/m3	1024.62 kg/m3	1025.75 kg/m3
318.15 K	1005.88 kg/m3	1006.9 kg/m3	1008.09 kg/m3	1009.19 kg/m3	1010.08 kg/m3	1011.41 kg/m3	1012.5 kg/m3	1013.37 kg/m3	1014.52 kg/m3

C1CCOC1 [tetrahydrofuran]
Conditions	mass density [kg/m3]	refractive index	viscosity [mPa·s]
[2]	882.02	–	0.448
[3]	–	1.4047	–

C[S+](C)[O-] [dimethyl sulfoxide]
Conditions	mass density [kg/m3]	refractive index	viscosity [mPa·s]
[2]	1095.29	–	1.867
[3]	–	1.4762	–

CC(=O)N(C)C [N,N-dimethylethanamide]
Conditions	mass density [kg/m3]	refractive index	viscosity [mPa·s]
[2]	936.57	–	0.961
[3]	–	1.436	–

CC(=O)Nc1ccc(OC(=O)c2ccccc2O)cc1 [salophen] + C[S+](C)[O-]
mass density, [1]
Conditions	m1 = 0.0099	m1 = 0.0307	m1 = 0.0493	m1 = 0.07	m1 = 0.0911	m1 = 0.1086	m1 = 0.1311	m1 = 0.1483	m1 = 0.1717
288.15 K	1105.64 kg/m3 and 1095.61 kg/m3	1096.3 kg/m3 and 1106.33 kg/m3	1096.92 kg/m3 and 1106.94 kg/m3	1097.62 kg/m3 and 1107.62 kg/m3	1098.35 kg/m3 and 1108.33 kg/m3	1098.97 kg/m3 and 1108.91 kg/m3	1099.71 kg/m3 and 1109.66 kg/m3	1100.31 kg/m3 and 1110.22 kg/m3	1101.12 kg/m3 and 1111 kg/m3
308.15 K	1085.58 kg/m3	1086.29 kg/m3	1086.93 kg/m3	1087.63 kg/m3	1088.38 kg/m3	1089 kg/m3	1089.77 kg/m3	1090.36 kg/m3	1091.18 kg/m3
318.15 K	1075.56 kg/m3	1076.29 kg/m3	1076.95 kg/m3	1077.68 kg/m3	1078.44 kg/m3	1079.07 kg/m3	1079.87 kg/m3	1080.47 kg/m3	1081.32 kg/m3

C1COCCO1 [1,4-dioxane]
Conditions	mass density [kg/m3]	refractive index	viscosity [mPa·s]
[2]	1027.93	–	1.158
[3]	–	1.4188	–

CC(=O)Nc1ccc(OC(=O)c2ccccc2O)cc1 [salophen] + CC(=O)N(C)C
mass density, [1]
Conditions	m1 = 0.0106	m1 = 0.0323	m1 = 0.0497	m1 = 0.0704	m1 = 0.0899	m1 = 0.1092	m1 = 0.129	m1 = 0.1492	m1 = 0.1742
288.15 K	946.52 kg/m3 and 937.32 kg/m3	938.87 kg/m3 and 948.07 kg/m3	940.11 kg/m3 and 949.32 kg/m3	941.6 kg/m3 and 950.78 kg/m3	942.99 kg/m3 and 952.18 kg/m3	944.36 kg/m3 and 953.53 kg/m3	945.78 kg/m3 and 954.93 kg/m3	947.22 kg/m3 and 956.35 kg/m3	949.07 kg/m3 and 958.13 kg/m3
308.15 K	928.08 kg/m3	929.62 kg/m3	930.86 kg/m3	932.36 kg/m3	933.77 kg/m3	935.17 kg/m3	936.59 kg/m3	938.07 kg/m3	939.94 kg/m3
318.15 K	918.85 kg/m3	920.4 kg/m3	921.65 kg/m3	923.15 kg/m3	924.58 kg/m3	925.99 kg/m3	927.42 kg/m3	928.91 kg/m3	930.75 kg/m3
